Assay results published in PMC5501099 (Malaria Journal, 2017).

Columns and labels:
Assay in all cases: Ivermectin lethal concentration / survivorship, membrane blood feeding
Type in all cases: in vivo
Anopheles campestris = conditions: An. campestris
Experimental: (§1) Powdered formulation of ivermectin compound was obtained from Sigma-Aldrich (St. Louis, USA). […] Control blood meals consisted of previously frozen DMSO diluted in PBS to match the ratio of DMSO and PBS fed to mosquitoes in the ivermectin-containing blood meals.
(§2) After blood feeding via a membrane feeder, unfed mosquitoes were removed and discarded. Blood-fed mosquitoes were held in 3.5-l plastic containers with access to 10% sucrose and kept in an incubator at 25 ± 1 °C and 70 ± 10% relative humidity, on a 12 h light:12 h dark photoperiod. Mosquito survivorship was monitored for 7 days, every 24 h dead mosquitoes were removed and recorded, and on day 7 all remaining mosquitoes were frozen and counted as alive.
(§3) A non-linear mixed effects model with probit analysis was used to calculate LC50, LC25 and LC5 values with Statistical Analysis Software (SAS Institute Inc, Cary, NC, USA) as described previously. Hazard ratios for mosquito mortality at day 7 post blood meal were calculated using Poisson regression analysis with STATA version 12.1 (StataCorp LLC, College Station, TX, USA). Oocyst and sporozoite prevalence (i.e. proportion of infected mosquitoes) was compared by Fishers Exact test. Oocyst intensity (i.e. number of oocysts per infected mosquito) was compared by the Mann–Whitney U test. To determine if P. vivax infection altered mosquito survivorship post-ivermectin ingestion survival data were analysed by the Mantel–Cox method. The Fishers Exact, Mann–Whitney U, and survival analysis data were analysed with Prism 7 (GraphPad Software Inc, San Diego, CA, USA).

Anopheles minimus = conditions: An. minimus
Experimental: as §1, §2, §3

Anopheles sawadwongporni = conditions: An. sawadwongporni
Experimental: as §1, §2, §3

ivermectin
LC5 (Anopheles campestris; 7 days post blood meal): 11.7 ng/mL
LC25 (Anopheles campestris; 7 days post blood meal): 0.0189 µg/mL
LC50 (Anopheles campestris; 7 days post blood meal): 0.0264 µg/mL
IRR (Incidence Rate Ratio of mortality at day 7, treatment group divided by control group) (Anopheles campestris; ivermectin imbibed 3 ng/ml): 0.8
IRR (Incidence Rate Ratio of mortality at day 7, treatment group divided by control group) (Anopheles campestris; ivermectin imbibed 4 ng/ml): 1.7
IRR (Incidence Rate Ratio of mortality at day 7, treatment group divided by control group) (Anopheles campestris; ivermectin imbibed 5 ng/ml): 1.4
IRR (Incidence Rate Ratio of mortality at day 7, treatment group divided by control group) (Anopheles campestris; ivermectin imbibed 6 ng/ml): 1.0
IRR (Incidence Rate Ratio of mortality at day 7, treatment group divided by control group) (Anopheles campestris; ivermectin imbibed 8 ng/ml): 1.2
IRR (Incidence Rate Ratio of mortality at day 7, treatment group divided by control group) (Anopheles campestris; ivermectin imbibed 10 ng/ml): 1.0
IRR (Incidence Rate Ratio of mortality at day 7, treatment group divided by control group) (Anopheles campestris; ivermectin imbibed 15 ng/ml): 1.8
IRR (Incidence Rate Ratio of mortality at day 7, treatment group divided by control group) (Anopheles campestris; ivermectin imbibed 18 ng/ml): 2.7
IRR (Incidence Rate Ratio of mortality at day 7, treatment group divided by control group) (Anopheles campestris; ivermectin imbibed 20 ng/ml): 2.5
IRR (Incidence Rate Ratio of mortality at day 7, treatment group divided by control group) (Anopheles campestris; ivermectin imbibed 22 ng/ml): 3.4
IRR (Incidence Rate Ratio of mortality at day 7, treatment group divided by control group) (Anopheles campestris; ivermectin imbibed 25 ng/ml): 3.4
IRR (Incidence Rate Ratio of mortality at day 7, treatment group divided by control group) (Anopheles campestris; ivermectin imbibed 30 ng/ml): 2.5
IRR (Incidence Rate Ratio of mortality at day 7, treatment group divided by control group) (Anopheles campestris; ivermectin imbibed 35 ng/ml): 2.5
IRR (Incidence Rate Ratio of mortality at day 7, treatment group divided by control group) (Anopheles campestris; ivermectin imbibed 45 ng/ml): 4.9
IRR (Incidence Rate Ratio of mortality at day 7, treatment group divided by control group) (Anopheles campestris; ivermectin imbibed 50 ng/ml): 5.3
LC5 (Anopheles minimus; 7 days post blood meal): 6.7 ng/mL
LC25 (Anopheles minimus; 7 days post blood meal): 0.0113 µg/mL
LC50 (Anopheles minimus; 7 days post blood meal): 0.0163 µg/mL
IRR (Incidence Rate Ratio of mortality at day 7, treatment group divided by control group) (Anopheles minimus; ivermectin imbibed 1 ng/ml): 2.7
IRR (Incidence Rate Ratio of mortality at day 7, treatment group divided by control group) (Anopheles minimus; ivermectin imbibed 2 ng/ml): 0.5
IRR (Incidence Rate Ratio of mortality at day 7, treatment group divided by control group) (Anopheles minimus; ivermectin imbibed 3 ng/ml): 1.8
IRR (Incidence Rate Ratio of mortality at day 7, treatment group divided by control group) (Anopheles minimus; ivermectin imbibed 4 ng/ml): 2.9
IRR (Incidence Rate Ratio of mortality at day 7, treatment group divided by control group) (Anopheles minimus; ivermectin imbibed 5 ng/ml): 3.6
IRR (Incidence Rate Ratio of mortality at day 7, treatment group divided by control group) (Anopheles minimus; ivermectin imbibed 6 ng/ml): 1.3
IRR (Incidence Rate Ratio of mortality at day 7, treatment group divided by control group) (Anopheles minimus; ivermectin imbibed 8 ng/ml): 2.8
IRR (Incidence Rate Ratio of mortality at day 7, treatment group divided by control group) (Anopheles minimus; ivermectin imbibed 10 ng/ml): 3.8
IRR (Incidence Rate Ratio of mortality at day 7, treatment group divided by control group) (Anopheles minimus; ivermectin imbibed 12 ng/ml): 4.6
IRR (Incidence Rate Ratio of mortality at day 7, treatment group divided by control group) (Anopheles minimus; ivermectin imbibed 15 ng/ml): 5.8
IRR (Incidence Rate Ratio of mortality at day 7, treatment group divided by control group) (Anopheles minimus; ivermectin imbibed 18 ng/ml): 7.0
IRR (Incidence Rate Ratio of mortality at day 7, treatment group divided by control group) (Anopheles minimus; ivermectin imbibed 20 ng/ml): 9.5
IRR (Incidence Rate Ratio of mortality at day 7, treatment group divided by control group) (Anopheles minimus; ivermectin imbibed 25 ng/ml): 9.0
IRR (Incidence Rate Ratio of mortality at day 7, treatment group divided by control group) (Anopheles minimus; ivermectin imbibed 28 ng/ml): 10.5
IRR (Incidence Rate Ratio of mortality at day 7, treatment group divided by control group) (Anopheles minimus; ivermectin imbibed 30 ng/ml): 11.5
LC5 (Anopheles sawadwongporni; 7 days post blood meal): 16.1 ng/mL
LC25 (Anopheles sawadwongporni; 7 days post blood meal): 0.0218 µg/mL
LC50 (Anopheles sawadwongporni; 7 days post blood meal): 0.0269 µg/mL
IRR (Incidence Rate Ratio of mortality at day 7, treatment group divided by control group) (Anopheles sawadwongporni; ivermectin imbibed 4 ng/ml): 0.3
IRR (Incidence Rate Ratio of mortality at day 7, treatment group divided by control group) (Anopheles sawadwongporni; ivermectin imbibed 5 ng/ml): 1.3
IRR (Incidence Rate Ratio of mortality at day 7, treatment group divided by control group) (Anopheles sawadwongporni; ivermectin imbibed 6 ng/ml): 0.3
IRR (Incidence Rate Ratio of mortality at day 7, treatment group divided by control group) (Anopheles sawadwongporni; ivermectin imbibed 8 ng/ml): 0.6
IRR (Incidence Rate Ratio of mortality at day 7, treatment group divided by control group) (Anopheles sawadwongporni; ivermectin imbibed 10 ng/ml): 1.1
IRR (Incidence Rate Ratio of mortality at day 7, treatment group divided by control group) (Anopheles sawadwongporni; ivermectin imbibed 12 ng/ml): 0.9
IRR (Incidence Rate Ratio of mortality at day 7, treatment group divided by control group) (Anopheles sawadwongporni; ivermectin imbibed 15 ng/ml): 2.1
IRR (Incidence Rate Ratio of mortality at day 7, treatment group divided by control group) (Anopheles sawadwongporni; ivermectin imbibed 18 ng/ml): 2.1
IRR (Incidence Rate Ratio of mortality at day 7, treatment group divided by control group) (Anopheles sawadwongporni; ivermectin imbibed 20 ng/ml): 2.7
IRR (Incidence Rate Ratio of mortality at day 7, treatment group divided by control group) (Anopheles sawadwongporni; ivermectin imbibed 22 ng/ml): 2.3
IRR (Incidence Rate Ratio of mortality at day 7, treatment group divided by control group) (Anopheles sawadwongporni; ivermectin imbibed 25 ng/ml): 5.3
IRR (Incidence Rate Ratio of mortality at day 7, treatment group divided by control group) (Anopheles sawadwongporni; ivermectin imbibed 28 ng/ml): 5.2
IRR (Incidence Rate Ratio of mortality at day 7, treatment group divided by control group) (Anopheles sawadwongporni; ivermectin imbibed 30 ng/ml): 8.0
IRR (Incidence Rate Ratio of mortality at day 7, treatment group divided by control group) (Anopheles sawadwongporni; ivermectin imbibed 35 ng/ml): 8.4
IRR (Incidence Rate Ratio of mortality at day 7, treatment group divided by control group) (Anopheles sawadwongporni; ivermectin imbibed 40 ng/ml): 9.4
